Measurements: PubChem BioAssay AID1963848 (Molecular Pharmacology Branch, DTP, NCI, 2024)

Test system: 379773-124-R-J2-PDC spheroid viability
Experiment: Anticancer human tumor 379773-124-R-J2-PDC patient-derived endometrial carcinoma cell line growth inhibition [POLQ]
Conditions: spheroids with HUVEC and MSC; for IC50: curve of first compound; for viability, T/C: stronger effect = lower value; active means viability on the fitted dose curve at most 10% of control; inactive means the rest
How it was run: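 PDC + HUVEC + MSC complex spheroids; POLQ inhibitors ± partner drugs; top conc. at/near clinical Cmax, else 10 microM (SN-38 1 microM), half-log dilutions; 37 degrees C, 5% CO2.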

[1] = second compound 0.0316 µM, first compound 0.0316 µM
[2] = second compound 0.0316 µM, first compound 0.1 µM
[3] = second compound 0.0316 µM, first compound 0.316 µM
[4] = second compound 0.0316 µM, first compound 1 µM
[5] = second compound 0.0316 µM, first compound 3.16 µM
[6] = second compound 0.0316 µM, first compound 10 µM
[7] = second compound 0.1 µM, first compound 0.0316 µM
[8] = second compound 0.1 µM, first compound 0.1 µM
[9] = second compound 0.1 µM, first compound 0.316 µM
[10] = second compound 0.1 µM, first compound 1 µM
[11] = second compound 0.1 µM, first compound 3.16 µM
[12] = second compound 0.1 µM, first compound 10 µM
[13] = second compound 0.316 µM, first compound 0.0316 µM
[14] = second compound 0.316 µM, first compound 0.1 µM
[15] = second compound 0.316 µM, first compound 0.316 µM
[16] = second compound 0.316 µM, first compound 1 µM
[17] = second compound 0.316 µM, first compound 3.16 µM
[18] = second compound 0.316 µM, first compound 10 µM
[19] = second compound 1 µM, first compound 0.0316 µM
[20] = second compound 1 µM, first compound 0.1 µM
[21] = second compound 1 µM, first compound 0.316 µM
[22] = second compound 1 µM, first compound 1 µM
[23] = second compound 1 µM, first compound 3.16 µM
[24] = second compound 1 µM, first compound 10 µM
[25] = second compound 3.16 µM, first compound 0.0316 µM
[26] = second compound 3.16 µM, first compound 0.1 µM
[27] = second compound 3.16 µM, first compound 0.316 µM
[28] = second compound 3.16 µM, first compound 1 µM
[29] = second compound 3.16 µM, first compound 3.16 µM
[30] = second compound 3.16 µM, first compound 10 µM
[31] = second compound 10 µM, first compound 0.0316 µM
[32] = second compound 10 µM, first compound 0.1 µM
[33] = second compound 10 µM, first compound 0.316 µM
[34] = second compound 10 µM, first compound 1 µM
[35] = second compound 10 µM, first compound 3.16 µM
[36] = second compound 10 µM, first compound 10 µM
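Further: spheroids exposed to drugs for seven days before readout.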
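Wherever viability, T/C is given: percent viability relative to DMSO vehicle control taken as 100%.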

CC1COCCN1c1cc(-c2ccnn2C)c2ccnc(-c3ccn[nH]3)c2n1 (stereo not given) + Cc1cccc(N(C)C(=O)C2C(O)CCN2c2nc(C)cc(C(F)(F)F)c2C#N)c1
74.2 nM: IC50 (second compound 1 µM)
99.4 nM: IC50 (second compound 0.0316 µM)
inactive: viability, T/C [1] 81.4% | viability, T/C [2] 49.9% | viability, T/C [3] 12.2% | viability, T/C [7] 83.7% | viability, T/C [8] 50.7% | viability, T/C [9] 16.9% | viability, T/C [13] 79.4% | viability, T/C [14] 45.1% | viability, T/C [15] 10.8% | viability, T/C [19] 76.5% | viability, T/C [20] 40.7% | viability, T/C [21] 13.5% | viability, T/C [25] 76.9% | viability, T/C [26] 50.7% | viability, T/C [27] 14% | viability, T/C [31] 70.5% | viability, T/C [32] 49.3% | viability, T/C [33] 14%
96.3 nM: IC50 (second compound 10 µM)
102 nM: IC50 (second compound 0.1 µM) | IC50 (second compound 3.16 µM)
84.7 nM: IC50 (second compound 0.316 µM)
active: viability, T/C [4] 10.4% | viability, T/C [5] 9.61% | viability, T/C [6] 5.75% | viability, T/C [10] 10.2% | viability, T/C [11] 8.42% | viability, T/C [12] 6.47% | viability, T/C [16] 7.57% | viability, T/C [17] 9.57% | viability, T/C [18] 7.53% | viability, T/C [22] 8.7% | viability, T/C [23] 8.89% | viability, T/C [24] 6.67% | viability, T/C [28] 9.29% | viability, T/C [29] 8.28% | viability, T/C [30] 6.05% | viability, T/C [34] 9.57% | viability, T/C [35] 9.04% | viability, T/C [36] 5.97%

CC1COCCN1c1cc(C2(S(C)(=N)=O)CC2)nc(-c2ccnc3[nH]ccc23)n1 (stereo not given) + Cc1cccc(N(C)C(=O)C2C(O)CCN2c2nc(C)cc(C(F)(F)F)c2C#N)c1
2030 nM: IC50 (second compound 3.16 µM)
active: viability, T/C [6] 5.98% | viability, T/C [12] 5.96% | viability, T/C [18] 8.62% | viability, T/C [24] 6.64% | viability, T/C [30] 7.75% | viability, T/C [36] 8.39%
1840 nM: IC50 (second compound 1 µM)
1630 nM: IC50 (second compound 10 µM)
2060 nM: IC50 (second compound 0.0316 µM)
1970 nM: IC50 (second compound 0.316 µM)
1870 nM: IC50 (second compound 0.1 µM)
inactive: viability, T/C [1] 83.3% | viability, T/C [2] 84.7% | viability, T/C [3] 81.1% | viability, T/C [4] 77% | viability, T/C [5] 34.2% | viability, T/C [7] 89.4% | viability, T/C [8] 91.2% | viability, T/C [9] 79.7% | viability, T/C [10] 81.5% | viability, T/C [11] 23.9% | viability, T/C [13] 87.1% | viability, T/C [14] 97% | viability, T/C [15] 80.1% | viability, T/C [16] 78.6% | viability, T/C [17] 30.6% | viability, T/C [19] 81.4% | viability, T/C [20] 78.8% | viability, T/C [21] 79.8% | viability, T/C [22] 69.4% | viability, T/C [23] 32.7% | viability, T/C [25] 84.4% | viability, T/C [26] 88.7% | viability, T/C [27] 79.2% | viability, T/C [28] 61.8% | viability, T/C [29] 42.2% | viability, T/C [31] 84.6% | viability, T/C [32] 73.3% | viability, T/C [33] 79.2% | viability, T/C [34] 62.5% | viability, T/C [35] 32.2%

CCCS(=O)(=O)Nc1ccc(F)c(C(=O)c2c[nH]c3ncc(-c4ccc(Cl)cc4)cc23)c1F + Cc1cccc(N(C)C(=O)C2C(O)CCN2c2nc(C)cc(C(F)(F)F)c2C#N)c1
> 10000 nM: IC50 (second compound 0.0316 µM) | IC50 (second compound 0.1 µM) | IC50 (second compound 0.316 µM) | IC50 (second compound 1 µM) | IC50 (second compound 3.16 µM) | IC50 (second compound 10 µM)
inactive: viability, T/C [1] 88.6% | viability, T/C [2] 102% | viability, T/C [3] 90.9% | viability, T/C [4] 99.4% | viability, T/C [5] 82.1% | viability, T/C [6] 62.3% | viability, T/C [7] 101% | viability, T/C [8] 89.5% | viability, T/C [9] 95.2% | viability, T/C [10] 87.4% | viability, T/C [11] 86.6% | viability, T/C [12] 58.7% | viability, T/C [13] 97.4% | viability, T/C [14] 98.5% | viability, T/C [15] 94.9% | viability, T/C [16] 87.1% | viability, T/C [17] 78.5% | viability, T/C [18] 60.1% | viability, T/C [19] 98.9% | viability, T/C [20] 88.7% | viability, T/C [21] 85.2% | viability, T/C [22] 86.5% | viability, T/C [23] 80.3% | viability, T/C [24] 64.3% | viability, T/C [25] 92% | viability, T/C [26] 90.4% | viability, T/C [27] 85.7% | viability, T/C [28] 85.3% | viability, T/C [29] 73.8% | viability, T/C [30] 63% | viability, T/C [31] 89.9% | viability, T/C [32] 92.1% | viability, T/C [33] 87.7% | viability, T/C [34] 83.9% | viability, T/C [35] 77.8% | viability, T/C [36] 53.9%

COc1ccc([C@@H](O)c2cc(-c3ncnc4cc(N5CCOCC5)ccc34)c(F)cc2Cl)nn1 + Cc1cccc(N(C)C(=O)C2C(O)CCN2c2nc(C)cc(C(F)(F)F)c2C#N)c1
6190 nM: IC50 (second compound 10 µM)
inactive: viability, T/C [1] 81.3% | viability, T/C [2] 83.6% | viability, T/C [3] 94.3% | viability, T/C [4] 96.3% | viability, T/C [5] 75% | viability, T/C [6] 33.5% | viability, T/C [7] 87% | viability, T/C [8] 89.6% | viability, T/C [9] 92% | viability, T/C [10] 87.1% | viability, T/C [11] 64.1% | viability, T/C [12] 37.9% | viability, T/C [13] 81.5% | viability, T/C [14] 82.1% | viability, T/C [15] 101% | viability, T/C [16] 82.4% | viability, T/C [17] 73% | viability, T/C [18] 39.8% | viability, T/C [19] 97.2% | viability, T/C [20] 85.4% | viability, T/C [21] 92% | viability, T/C [22] 81.8% | viability, T/C [23] 83.8% | viability, T/C [24] 33.4% | viability, T/C [25] 87.3% | viability, T/C [26] 85.5% | viability, T/C [27] 96.7% | viability, T/C [28] 74.8% | viability, T/C [29] 81.6% | viability, T/C [30] 35% | viability, T/C [31] 74.8% | viability, T/C [32] 78.5% | viability, T/C [33] 85.2% | viability, T/C [34] 80% | viability, T/C [35] 82.2% | viability, T/C [36] 28.4%
5880 nM: IC50 (second compound 0.1 µM)
7000 nM: IC50 (second compound 0.316 µM)
6790 nM: IC50 (second compound 1 µM)
6330 nM: IC50 (second compound 0.0316 µM)
6780 nM: IC50 (second compound 3.16 µM)

Cn1ncnc1[C@H]1c2n[nH]c(=O)c3cc(F)cc(c23)N[C@@H]1c1ccc(F)cc1 + Cc1cccc(N(C)C(=O)C2C(O)CCN2c2nc(C)cc(C(F)(F)F)c2C#N)c1
90.1 nM: IC50 (second compound 3.16 µM)
inactive: viability, T/C (second compound 0.0316 µM, first compound 0.000316 µM) 79.1% | viability, T/C (second compound 0.0316 µM, first compound 0.001 µM) 78.9% | viability, T/C (second compound 0.0316 µM, first compound 0.00316 µM) 74.5% | viability, T/C (second compound 0.0316 µM, first compound 0.01 µM) 89.8% | viability, T/C [1] 67.8% | viability, T/C [2] 60.8% | viability, T/C (second compound 0.1 µM, first compound 0.000316 µM) 86.3% | viability, T/C (second compound 0.1 µM, first compound 0.001 µM) 77.2% | viability, T/C (second compound 0.1 µM, first compound 0.00316 µM) 90.2% | viability, T/C (second compound 0.1 µM, first compound 0.01 µM) 82.8% | viability, T/C [7] 61.5% | viability, T/C [8] 55.6% | viability, T/C (second compound 0.316 µM, first compound 0.000316 µM) 85.7% | viability, T/C (second compound 0.316 µM, first compound 0.001 µM) 79.7% | viability, T/C (second compound 0.316 µM, first compound 0.00316 µM) 74.2% | viability, T/C (second compound 0.316 µM, first compound 0.01 µM) 73.6% | viability, T/C [13] 82.8% | viability, T/C [14] 55.5% | viability, T/C (second compound 1 µM, first compound 0.000316 µM) 76.8% | viability, T/C (second compound 1 µM, first compound 0.001 µM) 87.3% | viability, T/C (second compound 1 µM, first compound 0.00316 µM) 75.8% | viability, T/C (second compound 1 µM, first compound 0.01 µM) 76.7% | viability, T/C [19] 65.6% | viability, T/C [20] 60.6% | viability, T/C (second compound 3.16 µM, first compound 0.000316 µM) 74.9% | viability, T/C (second compound 3.16 µM, first compound 0.001 µM) 83.3% | viability, T/C (second compound 3.16 µM, first compound 0.00316 µM) 67.6% | viability, T/C (second compound 3.16 µM, first compound 0.01 µM) 84.2% | viability, T/C [25] 70.2% | viability, T/C [26] 47.8% | viability, T/C (second compound 10 µM, first compound 0.000316 µM) 76.8% | viability, T/C (second compound 10 µM, first compound 0.001 µM) 78% | viability, T/C (second compound 10 µM, first compound 0.00316 µM) 74.7% | viability, T/C (second compound 10 µM, first compound 0.01 µM) 70.5% | viability, T/C [31] 62.7% | viability, T/C [32] 54.1%
> 100 nM: IC50 (second compound 0.0316 µM) | IC50 (second compound 0.1 µM) | IC50 (second compound 0.316 µM) | IC50 (second compound 1 µM) | IC50 (second compound 10 µM)
